Measured values from ChEMBL document CHEMBL1146842, “Design, synthesis, and biological evaluations of novel quinolones as HIV-1 non-nucleoside reverse transcriptase inhibitors” (Bioorg Med Chem Lett, 2006).
Blank lines part the entries; values can stand above or below the compound they belong to.

How the values were obtained:
[1] = system: Human immunodeficiency virus 1; assay: Antiviral activity against HIV1; assay type: functional, organism-based
[2] = system: HEK293; assay: Cytotoxicity against HEK293T cells; assay type: functional; details: Homo sapiens
[3] = system: Human immunodeficiency virus 1; assay: Antiviral activity against HIV1 E138K mutant; assay type: functional, organism-based
[4] = system: Human immunodeficiency virus 1; assay: Antiviral activity against HIV1 F227L mutant; assay type: functional, organism-based
[5] = system: Human immunodeficiency virus 1; assay: Antiviral activity against HIV1 I135V mutant; assay type: functional, organism-based
[6] = system: Human immunodeficiency virus 1; assay: Antiviral activity against HIV1 K103N mutant; assay type: functional, organism-based
[7] = system: Human immunodeficiency virus 1; assay: Antiviral activity against HIV1 L100I mutant; assay type: functional, organism-based
[8] = system: Human immunodeficiency virus 1; assay: Antiviral activity against HIV1 V106A mutant; assay type: functional, organism-based
[9] = system: Human immunodeficiency virus 1; assay: Antiviral activity against HIV1 Y181C mutant; assay type: functional, organism-based
[10] = system: Human immunodeficiency virus 1; assay: Antiviral activity against HIV1 Y188L mutant; assay type: functional, organism-based
[11] = system: Human immunodeficiency virus 1; assay: Antiviral activity against HIV1 V179E mutant; assay type: functional, organism-based
[12] = system: Human immunodeficiency virus 1; assay: Antiviral activity against HIV1 Y181H mutant; assay type: functional, organism-based
[13] = system: Human immunodeficiency virus 1; assay: Antiviral activity against HIV1 Y181S mutant; assay type: functional, organism-based

EC50 [1]: 197 nM
Structure (SMILES): CCCCC12CC1(C#N)C(=O)Nc1ccc(Cl)cc12 (stereo unspecified)
CC50 [2]: > 10000 nM

Structure (SMILES): CCCCC12CC1(C(=O)Oc1ccc(C#N)cc1)C(=O)Nc1ccc(Cl)cc12 (stereo unspecified)
EC50 [1]: 1100 nM
CC50 [2]: > 10000 nM

Structure (SMILES): CCOC(=O)C12CC1(C)c1cc(Cl)ccc1NC2=O (stereo unspecified)
EC50 [1]: > 10000 nM
CC50 [2]: > 10000 nM

Structure (SMILES): C=CCOC(=O)C12CC1(CCCC)c1cc(Cl)ccc1NC2=O (stereo unspecified)
EC50 [1]: 1 nM
CC50 [2]: > 10000 nM
EC50 [3]: 32 nM
EC50 [4]: 1 nM
EC50 [5]: 23 nM
EC50 [6]: 1080 nM
EC50 [7]: 1 nM
EC50 [8]: 1220 nM
EC50 [9]: 2940 nM
EC50 [10]: > 10000 nM
EC50 [11]: 233 nM
EC50 [12]: 20 nM
EC50 [13]: 932 nM

Structure (SMILES): CCCCC12CC1(C(=O)OCCC#N)C(=O)Nc1ccc(Cl)cc12 (stereo unspecified)
EC50 [1]: 113 nM
CC50 [2]: > 10000 nM

EC50 [1]: 2700 nM
Structure (SMILES): CCCCC12CC1(C(=O)Nc1ccccn1)C(=O)Nc1ccc(Cl)cc12 (stereo unspecified)
CC50 [2]: > 10000 nM

Structure (SMILES): CCCCC12CC1(C(=O)CC1CC1)C(=O)Nc1ccc(Cl)cc12 (stereo unspecified)
EC50 [1]: 5690 nM
CC50 [2]: > 10000 nM

EC50 [1]: 1330 nM
Structure (SMILES): CCCCC12CC1(C(=O)Nc1ccccc1C(N)=O)C(=O)Nc1ccc(Cl)cc12 (stereo unspecified)
CC50 [2]: > 10000 nM

EC50 [1]: 2780 nM
Structure (SMILES): CCCCC12CC1(C(=O)NC(C)C)C(=O)Nc1ccc(Cl)cc12 (stereo unspecified)
CC50 [2]: > 10000 nM

Structure (SMILES): CCCCC12CC1(C(=O)Oc1ccccc1)C(=O)Nc1ccc(Cl)cc12 (stereo unspecified)
EC50 [1]: > 10000 nM
CC50 [2]: > 10000 nM

Structure (SMILES): CCOC(=O)C12CC1(CC(C)C)c1cc(Cl)ccc1NC2=O (stereo unspecified)
EC50 [1]: 57 nM
CC50 [2]: > 10000 nM
EC50 [3]: 91 nM
EC50 [4]: 22 nM
EC50 [5]: 85 nM
EC50 [6]: > 10000 nM
EC50 [7]: 63 nM
EC50 [8]: 2940 nM
EC50 [9]: > 10000 nM
EC50 [10]: > 10000 nM
EC50 [11]: 3950 nM
EC50 [12]: 210 nM
EC50 [13]: 901 nM

Structure (SMILES): CCCCC12CC1(C(=O)OCC)C(=O)Nc1ccc(Cl)cc12 (stereo unspecified)
EC50 [1]: 3 nM
CC50 [2]: > 10000 nM
EC50 [3]: 47 nM
EC50 [4]: 7 nM
EC50 [5]: 28 nM
EC50 [6]: 884 nM
EC50 [7]: 14 nM
EC50 [8]: 279 nM
EC50 [9]: 1650 nM
EC50 [10]: > 10000 nM
EC50 [11]: 914 nM
EC50 [12]: 9 nM
EC50 [13]: 684 nM

Structure (SMILES): CCOC(=O)C12CC1(c1ccc(-c3ccccc3)cc1)c1cc(Cl)ccc1NC2=O (stereo unspecified)
EC50 [1]: > 10000 nM
CC50 [2]: > 10000 nM

Structure (SMILES): CCOC(=O)C12CC1(C1CC1)c1cc(Cl)ccc1NC2=O (stereo unspecified)
EC50 [1]: > 10000 nM
CC50 [2]: > 10000 nM

EC50 [1]: 2820 nM
Structure (SMILES): CCCCC12CC1(C(=O)NCc1ccccc1)C(=O)Nc1ccc(Cl)cc12 (stereo unspecified)
CC50 [2]: 8820 nM

Structure (SMILES): CCCCC12CC1(COCC)C(=O)Nc1ccc(Cl)cc12 (stereo unspecified)
EC50 [1]: 65 nM
CC50 [2]: > 10000 nM
EC50 [3]: 94 nM
EC50 [4]: 251 nM
EC50 [5]: 74 nM
EC50 [6]: 3960 nM
EC50 [7]: 39 nM
EC50 [8]: 1120 nM
EC50 [9]: 6240 nM
EC50 [10]: > 10000 nM
EC50 [11]: 1030 nM
EC50 [12]: 216 nM
EC50 [13]: 4180 nM

EC50 [1]: 240 nM
Structure (SMILES): C=CCOCC12CC1(CCCC)c1cc(Cl)ccc1NC2=O (stereo unspecified)
CC50 [2]: > 10000 nM

Structure (SMILES): CCOC(=O)C12CC1(C1CCCCC1)c1cc(Cl)ccc1NC2=O (stereo unspecified)
EC50 [1]: > 10000 nM
CC50 [2]: > 10000 nM

Structure (SMILES): CCCCC12CCC1(C(=O)OCC)C(=O)Nc1ccc(Cl)cc12 (stereo unspecified)
EC50 [1]: 102 nM
CC50 [2]: > 10000 nM

EC50 [1]: 166 nM
Structure (SMILES): CCCCc1c(C(=O)OCC)c(O)nc2ccc(Cl)cc12
CC50 [2]: > 10000 nM

EC50 [1]: > 10000 nM
Structure (SMILES): CCCCC12CC1(C(=O)N1CCCC1)C(=O)Nc1ccc(Cl)cc12 (stereo unspecified)
CC50 [2]: > 10000 nM

EC50 [1]: > 10000 nM
Structure (SMILES): CCCCC12CC1(C(=O)N1CCC1)C(=O)Nc1ccc(Cl)cc12 (stereo unspecified)
CC50 [2]: > 10000 nM

Structure (SMILES): CCCCC12CC1(C(=O)OCC=C(C)C)C(=O)Nc1ccc(Cl)cc12 (stereo unspecified)
EC50 [1]: 2360 nM
CC50 [2]: > 10000 nM

EC50 [1]: 1710 nM
Structure (SMILES): CCCCC12CC1(C(=O)Nc1ccccc1C#N)C(=O)Nc1ccc(Cl)cc12 (stereo unspecified)
CC50 [2]: 6090 nM

Structure (SMILES): O=C1Nc2ccc(Cl)cc2C(C#CC2CC2)(C(F)(F)F)O1 (single isomer, unassigned) [EFAVIRENZ]
CC50 [2]: > 10000 nM
EC50 [3]: 2 nM
EC50 [4]: 1 nM
EC50 [5]: 1 nM
EC50 [8]: 4 nM
EC50 [10]: 280 nM
EC50 [11]: 6 nM
EC50 [12]: 2 nM
EC50 [13]: 1 nM

Structure (SMILES): Cc1ccnc2c1NC(=O)c1cccnc1N2C1CC1 [NEVIRAPINE]
CC50 [2]: > 10000 nM
EC50 [3]: 31 nM
EC50 [4]: 148 nM
EC50 [5]: 79 nM
EC50 [8]: 8460 nM
EC50 [9]: > 10000 nM
EC50 [10]: > 10000 nM
EC50 [11]: 116 nM
EC50 [12]: 112 nM
EC50 [13]: 3000 nM
